Target: Coagulation factor XI (Homo sapiens) (UniProt P03951)
Test: Inhibition of human factor 11a using GPR-AFC as substrate preincubated for 30 mins followed by substrate addition and measured after 60 mins by fluorescence based analysis

Chain of Coagulation factor XI (Homo sapiens) (P03951 whole entry, looked up): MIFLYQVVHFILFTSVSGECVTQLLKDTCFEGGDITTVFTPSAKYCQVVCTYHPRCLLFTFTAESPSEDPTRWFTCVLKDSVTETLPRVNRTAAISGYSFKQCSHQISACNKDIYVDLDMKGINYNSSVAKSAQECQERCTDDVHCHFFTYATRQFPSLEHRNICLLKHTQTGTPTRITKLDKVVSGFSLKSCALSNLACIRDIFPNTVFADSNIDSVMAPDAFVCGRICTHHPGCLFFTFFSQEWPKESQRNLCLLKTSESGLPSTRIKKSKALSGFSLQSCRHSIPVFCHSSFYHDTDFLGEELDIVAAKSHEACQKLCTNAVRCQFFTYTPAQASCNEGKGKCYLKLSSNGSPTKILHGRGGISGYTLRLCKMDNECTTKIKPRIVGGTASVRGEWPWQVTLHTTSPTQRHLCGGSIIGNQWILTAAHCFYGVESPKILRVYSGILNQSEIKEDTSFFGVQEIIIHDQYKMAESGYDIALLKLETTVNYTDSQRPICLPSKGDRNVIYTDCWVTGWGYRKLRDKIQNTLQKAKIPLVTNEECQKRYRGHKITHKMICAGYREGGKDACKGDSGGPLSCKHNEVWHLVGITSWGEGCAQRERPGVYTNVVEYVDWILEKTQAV

SMILES | IC50 [µM]
O=C1Nc2ccc(Cl)c(F)c2[C@]2(CCN(c3cncc(C(=O)NCc4ccc(Cn5ccccc5=O)nc4)c3)C2)O1 | 10
CN1CCN(c2ccc(CNC(=O)c3cncc(N4CC[C@]5(C4)OC(=O)Nc4ccc(Cl)c(F)c45)n3)cn2)CC1 | 10
Cc1cnn(Cc2ccc(CNC(=O)c3cncc(N4CC[C@]5(C4)OC(=O)Nc4ccc(Cl)c(F)c45)c3)cn2)c1 | 10
O=C1Nc2ccc(Cl)c(F)c2[C@]2(CCN(c3cncc(C(=O)NCc4ccc(Cn5ccccc5=O)nc4)n3)C2)O1 | 10
Cc1cnn(Cc2ccc(CNC(=O)c3cnnc(N4CC[C@]5(C4)OC(=O)Nc4ccc(Cl)c(F)c45)c3)cc2)c1 | 10
CN1CCCC1c1ccc(CNC(=O)c2cnnc(N3CC[C@]4(C3)OC(=O)Nc3ccc(Cl)c(F)c34)c2)cc1 (stereo not given in full) | 10
O=C1Nc2ccc(Cl)c(F)c2[C@]2(CCN(c3cncc(C(=O)NCc4ccc(N5CCC5)nc4)n3)C2)O1 | 10
N#CC1(F)CN(Cc2ccc(CNC(=O)c3cnnc(N4CC[C@]5(C4)OC(=O)Nc4ccc(Cl)c(F)c45)c3)cc2)C1 | 10
C[C@H]1CCN(c2ccc(CNC(=O)c3cnnc(N4CC[C@]5(C4)OC(=O)Nc4ccc(Cl)c(F)c45)c3)cn2)C1 | 7.44
C[C@H]1CCN(c2ccc(CNC(=O)c3cncc(N4CC[C@]5(C4)OC(=O)Nc4ccc(Cl)c(F)c45)n3)cn2)C1 | 10
